Source: patent US20040265840A1, “Preservation of RNA quality and content in tissue sections during immunohistochemistry” (priority 2002, published 2004)

Test system: RNase activity in a processed tissue
Test: Inhibition of RNase activity in processed tissue during IHC staining
Settings: compared to other commercially available RNase inhibitors
Procedure: In one embodiment of the invention, the invention provides methods that preserve or maintain RNA quality and content in an IHC sample, such as for LCM, by use of a ribonucleoside vanadyl complex (RVC) as an RNase inhibitor. […] Use of RVCs is preferred in the practice of the invention over other RNase inhibitors and allows for performance of IHC staining of samples for LCM and downstream gene expression analysis.
The immunostaining was performed on frozen, acetone fixed, sections. RVCs (Ribonucleoside Vanadyl Complexes, Sigma catalog #R3380; Berger et al. Biochemistry 1979, 18:51431; Pukas et al., Biochemistry 1982, 21:46023) at 20 mM were added to all the acts of the staining including primary antibody solution, secondary antibody solution, and rinsing solutions (phosphate buffered saline or PBS). The processing was as follows:
IHC staining was performed on frozen, acetone fixed sections. All reagent solutions were prepared with nuclease free PBS containing a RVC RNase inhibitor and kept at +4° C. The slides were removed from −80° C. storage, 30 seconds are allowed for the condensation to disappear prior to fixing. The staining procedure was done at +4° C. by keeping the slides on a cold block through all parts of the procedure: […]

## Ribonucleoside Vanadyl Complexes [RVCs]
  inhibition of RNase activity in a processed tissue: superior inhibition of RNase activity
